Measured values published in patent publication US20030143172A1, “Hair treatment agent” (priority 2001, published 2003).

Tests used:
[1] = Hydroxy radical-scavenging ability (ESR-spin trap method); format: biochemical
Experimental: Using “ESR-spin trap method”, the radical scavenging in percentage of each of ascorbyl 2-phosphate sodium salt (APS), ascorbyl 2-phosphate magnesium salt (APM) and ascorbyl 2-glucoside (AG) was measured. The radicals were chemically generated.
10 μl of 1M HEPES buffer solution (pH: 7.2), 10 μl of 1 mM diethylenetriaminepentaacetic acid, each of 20 μl of APS, APM or AG solution, 100 μl of purified water, 40 μl of 40 mM 2,2′-azobis(2-methylpropionamidine)dihydrochloride and 20 μl of 0.5 M 5,5-dimethyl-1-pyrroline-N-oxide were added and mixed. The obtained solutions were sequentially enclosed into flat cells for ESR and the cells were placed in an ESR apparatus (“JES-RE1X”, manufactured by JEOL Ltd.) and subjected to the measurement of hydroxy radical-scavenging ability. The hydroxy radical-scavenging ability is shown by S/M value (area value of spectrum/area value of manganese marker) and the scavenging ratio is shown by percentage (%).

[2] = Ability of preventing hair damage caused by sunlight (weather meter irradiation, ΔE of hair); conditions: pH 7.2, irradiation 24 hours
Experimental: An APS solution, an AG solution, which were each adjusted to a pH of 7.2 and a concentration of 10 mM or 100 mM, and purified water (control) each was charged into a polyethylene bag and in respective bags, from 70 to 80 g of hair previously measured on the color (L*a*b* color specification) by a spectrocolorimeter (Macbeth Gretag APM50) was enclosed. After the immersion for about 2 hours, light was irradiated thereon using a weather meter (high energy xenon weather meter, manufactured by Suga Shikenki K. K.). The irradiation time was 24 hours and the integrated light intensity was about 10,000 kj/m^2. The hair after the irradiation was washed with purified water, air-dried and then subjected to the measurement of color (L*a*b* color specification) and from the values obtained, the color difference ΔE value was calculated.

[3] = Ability of preventing hair damage caused by chlorine (color difference ΔE of hair); set-up: species or system human; conditions: aqueous 10 mM solution, chlorine water, one hour
Experimental: 120 ml of an aqueous 10 mM APS solution, 120 ml of an aqueous 10 mM AG solution and 120 ml of purified water each was poured into two bottles with a screw opening. In the aqueous 10 mM APS solution, the aqueous 10 mM AG solution or the purified water, hair of an adult and hair of a child, which were previously subjected to the measurement of color (L*a*b color specification) by a spectrocolorimeter (Macbeth Gretag APM50), each was immersed in an amount of 70 to 80 mg while stirring. To each solution in which the hair was immersed, 15 ml of a commercially available chlorine water (concentration of free chlorine: about 0.43%) was added. After stirring for one hour, the hair was filtered, washed with water and air-dried. The resulting hairs were measured on the color (L*a*b* color specification) and from the values obtained, the color difference ΔE value was calculated.

[4] = Dechlorinating ability (iodometric titration of free chlorine in chlorine water); conditions: initial free chlorine 0.43
Experimental: To chlorine water having a previously determined free chlorine concentration, APS or AG was added and the amount of free chlorine decreased was measured. The free chlorine amount was measured by iodometric titiration.
To each of three Erlenmeyer flasks with a stopper, 10 ml of chlorine water having a known free chlorine concentration was added and thereto, APS or AG in an equimolar amount, 1.5 times molar amount or 2 times molar amount to the free chlorine in the solution was added and stirred. After 5 minutes, 10 minutes, 15 minutes and 20 minutes, the amount of free chlorine was titrated.
In the titration, 2 ml of each reaction solution was charged into another Erlenmeyer flask with a stopper, 50 ml of distilled water was added thereto, 1.0 g of potassium iodide and 1 ml of a 0.2% starch solution were further added and after stirring, a 0.1 N sodium thiosulfate standard solution was added dropwise. The point where purple color was faded out was designated as a final point. From the amount of sodium thiosulfate added dropwise at this time, the amount of free chlorine was calculated.

[5] = Ability of preventing decolorization of melanin pigment caused by chlorine (absorbance at 400 nm); set-up: species or system sepia officinailis; conditions: for 3 Hours After Addition abs / 6 Hours After Addition abs / Before Addition abs: 400 nm; for 3 Hours After Addition abs / Residual Ratio, 3H: 3 hours after addition of chlorine water; for 6 Hours After Addition abs / Residual Ratio, 6H: 6 hours after addition of chlorine water; for Before Addition abs: before addition of chlorine water (baseline)
Experimental: A melanin pigment (sepia officinailis) was added to a 2 N aqueous sodium hydroxide solution and dissolved under heating at 80° C. for 2 hours to adjust the melanin pigment content in the solution to 50 ppm. This melanin pigment solution was divided into 5 vessels and 5 kinds in total of sample solutions were prepared, namely, solutions adjusted to an APS concentration of 10 mM and 50 mM, solutions adjusted to an AG concentration of 10 mM and 50 mM, and a control having added thereto neither APS nor AG. Then, 4 ml of each solution was sampled in a sampling bottle and 0.5 ml of commercially available chlorine water (free chlorine concentration: about 0.43%) was added to each sampling bottle. As a blank, a melanin pigment solution was used. The prevention of melanin decolorization was evaluated by measuring the absorbance (abs) at 400 nm using a spectrophotometer when 3 hours (3 H) and 6 hours (6H) were passed after the addition of chlorine water.

[6] = molar ratio additive:free chlorine 1.0:1.0
[7] = molar ratio additive:free chlorine 1.5:1.0
[8] = molar ratio additive:free chlorine 2.0:1.0

SMILES	Radical scavenging, % (S/M relative to 0 mM = 100.0) ([1]; concentration 0.01 mM)	S/M (area value of spectrum/area value of manganese marker) ([1]; concentration 0.01 mM)	Radical scavenging, % (S/M relative to 0 mM = 100.0) ([1]; concentration 0.03 mM)	S/M (area value of spectrum/area value of manganese marker) ([1]; concentration 0.03 mM)	Radical scavenging, % (S/M relative to 0 mM = 100.0) ([1]; concentration 0.1 mM)	S/M (area value of spectrum/area value of manganese marker) ([1]; concentration 0.1 mM)	Radical scavenging, % (S/M relative to 0 mM = 100.0) ([1]; concentration 0.3 mM)	S/M (area value of spectrum/area value of manganese marker) ([1]; concentration 0.3 mM)	Radical scavenging, % (S/M relative to 0 mM = 100.0) ([1]; concentration 1 mM)	S/M (area value of spectrum/area value of manganese marker) ([1]; concentration 1 mM)	ΔE Value of Weather Meter Treated-hair ([2]; concentration 10 mM)	ΔE Value of Weather Meter Treated-hair ([2]; concentration 100 mM)	ΔE Value of Hair Treated With Chlorine ([3]; hair of child)	Free chlorine After 5 Minutes [4, 6]	Free chlorine After 10 Minutes [4, 6]	Free chlorine After 15 Minutes [4, 6]	Free chlorine After 20 Minutes [4, 6]	Free chlorine After 5 Minutes [4, 7]	Free chlorine After 10 Minutes [4, 7]	Free chlorine After 15 Minutes [4, 7]	further results
O=C1O[C@H]([C@@H](O)CO)C(O)=C1O[C@H]1O[C@H](CO)[C@@H](O)[C@H](O)[C@H]1O [AG, ascorbyl 2-glucoside]	98.5%	0.64	89.2%	0.58	98.5%	0.64	90.8%	0.59	61.5%	0.40	10.72	6.01	1.1	0.033%	0.02%	0.01%	0%	0.008%	0%	0%	Free chlorine After 20 Minutes [4, 7]: 0%; Free chlorine After 5 Minutes [4, 8]: 0%; Free chlorine After 10 Minutes [4, 8]: 0%; Free chlorine After 15 Minutes [4, 8]: 0%; Free chlorine After 20 Minutes [4, 8]: 0%; 3 Hours After Addition abs ([5]; additive 10 mM): 0.458 abs; 6 Hours After Addition abs ([5]; additive 10 mM): 0.447 abs; Before Addition abs ([5]; additive 10 mM): 0.575 abs; Residual Ratio, 3H ([5]; additive 10 mM): 0.797; Residual Ratio, 6H ([5]; additive 10 mM): 0.777; 3 Hours After Addition abs ([5]; additive 50 mM): 0.553 abs; 6 Hours After Addition abs ([5]; additive 50 mM): 0.540 abs; Before Addition abs ([5]; additive 50 mM): 0.569 abs; Residual Ratio, 3H ([5]; additive 50 mM): 0.972; Residual Ratio, 6H ([5]; additive 50 mM): 0.949
O=C1O[C@H]([C@@H](O)CO)C([O-])=C1OP(=O)([O-])[O-].O=C1O[C@H]([C@@H](O)CO)C([O-])=C1OP(=O)([O-])[O-].[Mg+2].[Mg+2].[Mg+2] [APM, ascorbyl 2-phosphate magnesium salt]	89.2%	0.58	92.3%	0.60	81.5%	0.53	64.6%	0.42	18.5%	0.12	–	–	–	–	–	–	–	–	–	–	–
O=C1O[C@H]([C@@H](O)CO)C([O-])=C1OP(=O)([O-])[O-].[Na+].[Na+].[Na+] [APS, ascorbyl 2-phosphate sodium salt]	103.1%	0.67	104.6%	0.68	78.5%	0.51	53.8%	0.35	16.9%	0.11	14.36	4.54	0.5	0.02%	0.012%	0.008%	0%	0.005%	0%	0%	ΔE Value of Hair Treated With Chlorine ([3]; hair of Adult person): 0.4; Free chlorine After 20 Minutes [4, 7]: 0%; Free chlorine After 5 Minutes [4, 8]: 0%; Free chlorine After 10 Minutes [4, 8]: 0%; Free chlorine After 15 Minutes [4, 8]: 0%; Free chlorine After 20 Minutes [4, 8]: 0%; 3 Hours After Addition abs ([5]; additive 10 mM): 0.449 abs; 6 Hours After Addition abs ([5]; additive 10 mM): 0.453 abs; Before Addition abs ([5]; additive 10 mM): 0.577 abs; Residual Ratio, 3H ([5]; additive 10 mM): 0.773; Residual Ratio, 6H ([5]; additive 10 mM): 0.785; 3 Hours After Addition abs ([5]; additive 50 mM): 0.545 abs; 6 Hours After Addition abs ([5]; additive 50 mM): 0.505 abs; Before Addition abs ([5]; additive 50 mM): 0.592 abs; Residual Ratio, 3H ([5]; additive 50 mM): 0.921; Residual Ratio, 6H ([5]; additive 50 mM): 0.853
